# Measured values taken from US20030181353A1, “Composition & use as analgesic, anti-inflammatory, wound healing agent, for treatment of heart conditions, assessment of heart function & tissue & cell protection & healing & reperfusion, mood disorders & symptoms & sequelae of menopause & for inducing unconsciousness, sleep & anesthesia” (priority 1998, published 2003).
# System: Intracellular Adenosine
# Format: in vivo, rat
compound,measurement,setting,value
"Nc1nc(=O)c2c([nH]1)NCC(CNc1ccc(C(=O)N[C@@H](CCC(=O)O)C(=O)O)cc1)N2C=O (mixture of isomers) [Follinic Acid (F.A.), folinic acid]","Adenosine levels in the heart, lung and brain","rat, in vivo, po",dramatic increase in adenosine levels
same,Effect of co-administration of folinic acid on adenosine depletion,"rats, co-administered with the depleting agent",completely abrogated adenosine depletion
same,Effect of folinic acid administered alone on adenosine levels,"rats, folinic acid alone, all organs studied",increase in adenosine levels for all organs studied
